Experimental data published in patent publication US12571791B2, “Methods for evaluating cardiac safety of drug using cardiomyocytes derived from human stem cells” (NEXEL CO., LTD., priority 2021, dated 2026).

System: human stem cell-derived cardiomyocytes
Protocol: First, step G-1, replaces the maintenance medium in the MEA plate that has undergone the 3rd incubation step (step F-3) with a fresh maintenance medium, and places the MEA plate into the cell culture incubator at 37° C. and 5% CO2 for 3 to 5 hours (preferably 3 hours) for stabilization of cells.
Next, the first set of measurement values on beat rate, spike amplitude, and field potential duration of the human stem cell-derived cardiomyocytes are taken (step G-2) with the MEA measurement device for the MEA plate that has undergone cell stabilization step (step G-1).
After the completion of the first measurement, a portion of the maintenance medium, which corresponds to 1/10 of the total volume in the well, is removed from wells of the MEA plate that has undergone the stabilization process. […]
Here, raw files stored in the MEA measurement device program are loaded, and the desired section of the data is re-recorded and saved as a CSV file. Then the drug's effect on the field potential of cardiomyocytes is evaluated by the changes in the reaction parameter, based on the first and second measurement values which include beat interval, spike amplitude, and field potential duration, to various concentrations of the drug.
In addition, the cardiac toxicity of a drug can be determined through changes in FPDcF and spike amplitude. […]

SMILES: Cc1cccc(C)c1OCC(C)N (stereo not shown) [Mexiletine]
- change in spike amplitude: decrease in the spike amplitude according to the drug concentration
